As usually defined, the melting point is the temperature of the solid-liquid transition.

As for `CC(=O)CNC1(c2ccc(OCCCN(C)C3CCCCC3)cc2)Sc2ccccc2N(C)C1=O` (configuration not stated), the melting point was 119 to 120 °C.

`CCC(=O)c1cc(-c2ccccc2)no1`: the melting point fell in the range of 111 to 112 °C.

Molecule `COc1ccc(F)c2c1C[C@@H](NO)CO2` gave a melting point of 111 to 113 °C.

Regarding `CC(=Cc1ccc2c(c1)Sc1cc(C=C(C)c3ccccc3)ccc1N2C)c1ccccc1`, the melting point fell in the range of 189 to 191 °C.

For the molecule `CC1=C(c2ccc(C(=O)O)cc2)CCCC1`, the melting point is 176 to 178 °C.

Regarding `CN(C)c1ccc(C=C2Cc3cc4c(cc3C2=O)CCCC4)cc1`, the melting point was in the range of 161 to 163 °C.

In turn, `CC(=O)Nc1ccccc1OCCO` had a melting point of 89 to 91 °C.

As for `Fc1ccc2c(CN3CCN(c4ccc(Cl)cc4)CC3)n[nH]c2c1`, the melting point is 217 to 219 °C.

As to `CS(=O)(=O)c1ccc(-c2[nH]nc(OC3CCCCC3=O)c2-c2ccc(F)cc2)cc1` (configuration not stated), the melting point was in the range of 113 to 116 °C.

As to `O=C(O)c1ccc(O)c(OCc2ccccc2)c1`, the melting point was in the range of 167 to 171 °C.

Turning to `N#Cc1ccc(CN2C(=O)C3(COc4cc5c(cc43)OCO5)c3ccccc32)o1` (configuration not stated), the melting point was 167 to 169 °C.

`O=c1oc(-c2ccccc2)nc2ccc(Br)cc12` displayed a melting point of 199 to 201 °C.

Consider `CCCCCc1ccc(-c2ccc(C3CC(CCCCC)C(=O)O3)cc2)cc1` (configuration not stated), for which the melting point was in the range of 86.2 to 88.4 °C.

`COc1ccc2c(c1)c1c(n2C)CCC(Cc2nc[nH]c2C)C1=O` (configuration not stated) came in with a melting point of 227 to 229 °C.

As for `COC(=O)[C@@H](Cc1ccccc1)Oc1c(Br)cc(-c2c3ccccc3c(Br)c3sc(C)c(C)c23)cc1C1CCCC1`, the melting point is 167 to 168 °C.

For the molecule `COc1ccc(OC)c2c(O)c(C#N)cnc12`, the melting point is 300 to 305 °C.

The molecule `Cc1nc(C(=O)O)c(C(=O)NC(C)(C)C)o1` gave a melting point of 186 to 188 °C.

Turning to `COC(=O)[C@H](CCSC)NC(=O)c1ccc(NC(Cn2ccnc2)c2ccc(F)cc2)cc1-c1ccc(F)cc1` (some centres not stated), the melting point was in the range of 94 to 98 °C.

With `Clc1ncccc1-c1cccnc1`, the melting point lay in the range of 92 to 93.5 °C.

For the molecule `OC1(c2ccccc2Cc2cc(F)ccc2F)CCN(Cc2ccccc2)CC1`, the melting point lay within 143 to 146 °C.

The molecule `CNC(=C[N+](=O)[O-])NCC(O)COc1cccc(CN2CCCCC2)c1` (configuration not stated) returned a melting point of 45 to 50 °C.

In turn, `COc1ccc(Cn2cnc(=O)c3[nH]c(C(C)C)nc32)cc1OC1CCCC1` yielded a melting point of 243 to 244 °C.

Regarding `Nc1nc(-c2cc(Cl)ccc2Cl)nc(N2CCN(C(c3ccccc3)c3ccccc3)CC2)n1`, the melting point fell in the range of 217 to 218 °C.

The molecule `Cc1cncn1-c1cc(C(=O)O)cc(C(F)(F)F)c1` showed a melting point of 243 to 245 °C.

`COCc1noc(-c2ncn3c2[C@@H]2CCCN2C(=O)c2c(Cl)cccc2-3)n1` showed a melting point of 168 to 170 °C.

In turn, `CC(C)(Cn1cnc2c(N)nc3ccccc3c21)CC1(C)OCCO1` yielded a melting point of 153 to 155 °C.

Consider `Cc1ccc(-c2ccccc2C#N)nc1`, for which the melting point was 80 to 81 °C.

Molecule `CC1(C)CC(=O)c2c(SCc3ccccc3)c[nH]c2C1` displayed a melting point of 220 to 223 °C.

Take `N#CCCNC(=O)c1cccc(-c2cccc(OC3CCCCC3)n2)c1`: the melting point lay within 131 to 132 °C.

In turn, `COc1ccc2oc(C(N)=O)c(-c3nnn[nH]3)c2c1` showed a melting point of 205 °C.

The molecule `CCC(=O)C1=C(O)CC(c2ccc3c(c2)OCO3)CC1=O` (configuration not stated) yielded a melting point of 129 °C.

In turn, `O=c1c(-c2ccccc2)c(CNc2ncnc3[nH]cnc23)oc2ccc(F)cc12` registered a melting point of 183 to 186 °C.

For the molecule `COc1ccc2c(c1O)NC(=O)C1CCCN1C2=O` (configuration not stated), the melting point fell in the range of 275 to 278 °C.

The molecule `COC1C2=C3C(=CN1OC)OCCC3CCC2` (configuration not stated) registered a melting point of 235 to 238 °C.

`COC(=O)c1nn(-c2cccc(C(F)(F)F)c2)c(=O)cc1OC`: the melting point lay within 124 to 125 °C.

As to `COc1ccc(Cl)cc1C(O)C(N)=O` (configuration not stated), the melting point is 121 to 123 °C.

In turn, `O=C1c2c(OCc3ccccc3)cccc2-c2nn(CCN(CCO)Cc3ccccc3)c3ccc(Cl)c1c23` yielded a melting point of 130 to 134 °C.

`CC(=O)c1cccc2oc(C(=O)Nc3ccc(-c4ccc(S(=O)(=O)NC(C(=O)O)C(C)C)cc4)cc3)c(C)c12` (configuration not stated): the melting point fell in the range of 228 to 235 °C.

In the case of `FC1CNC(c2ccc3c(c2)OCO3)c2[nH]c3ccccc3c21` (configuration not stated), the melting point is 172 °C.

Regarding `CCn1nc2c(n1)C(N1CCN(C)CC1)=Nc1cc(F)ccc1N2`, the melting point was 178 to 180 °C.

The molecule `NC(=O)c1cc(-c2ccncc2)sc1-c1ccncc1` came in with a melting point of 240 to 242 °C.

`O=C(Nc1ccc(CN2C(=O)C=C(CCO)Sc3ccccc32)cc1)c1ccccc1-c1ccccc1`: the melting point was 116 to 120 °C.

As for `COc1ccc(-n2nc(NC(=O)OC(C)(C)C)c3csc(N)c3c2=O)cc1`, the melting point was 99 to 101 °C.

Molecule `CCn1c(=O)n(O)c(=O)c2c(F)c(F)c(N3CCCC3)c(F)c21` returned a melting point of 223 to 225 °C.

Consider `CCC(CC)Oc1nc(C)nc(Cc2c(C)cc(C)cc2C)c1C`, for which the melting point was 82 to 84 °C.

On to `COc1ccc(C(=O)CCCCCBr)cc1Cl`, for which the melting point was in the range of 104 to 106 °C.

Consider `c1ccc(-c2cnn3cc(-c4ccc(CCCN5CCOCC5)cc4)cnc23)cc1`, for which the melting point fell in the range of 147 to 149 °C.

Regarding `COc1ccc(C2CC(C(C)(C)C)=NN2c2ccc(C(=O)O)cc2)c(OC)c1` (configuration not stated), the melting point came out at 214 °C.

`CN(C)c1ncc2c(=O)n(Cc3ccccn3)sc2n1` had a melting point of 145 to 146 °C.

For the molecule `CC(C)(C)c1cc([PH](=O)c2cc(C(C)(C)C)cc(C(C)(C)C)c2)cc(C(C)(C)C)c1`, the melting point amounted to 185 °C.

`CCCOC(=O)c1c(C)nsc1NC(=O)NC` had a melting point of 191 °C.

The molecule `CCN(c1nc2ccccc2c(=O)o1)c1ccccc1I` gave a melting point of 129 to 130 °C.

`Cc1c(Cc2ccccc2)c(=O)oc2cc(OCC3NOC(=O)N3)cc(OCC3NOC(=O)N3)c12` (configuration not stated) gave a melting point of 130 to 136 °C.

The molecule `O=C(CCc1ccccc1)c1ccc(OCCO)cc1` displayed a melting point of 41 to 43 °C.

For `COc1cc2ncc(C#N)c(Nc3ccc4cn[nH]c4c3)c2cc1OC`, the melting point was in the range of 180 to 183 °C.

In the case of `O=Cc1cc2n(n1)-c1ccc(Cl)cc1C(c1ccccc1)=NC2`, the melting point lay in the range of 170 to 172 °C.

Take `O=C(NC1CCCCC1)c1cc2ccncc2[nH]1`: the melting point lay in the range of 298 to 301 °C.

Consider `COc1cccc(-c2cc(C(=O)NCCCCCCCCc3ccccc3)cc(-c3cccc(OC)c3OCC(=O)O)c2)c1`, for which the melting point is 67.3 to 68.7 °C.

Regarding `CN(C)c1ccc(C=CC(O)c2cnc3sc4c(n23)CCCCC4)cc1` (configuration not stated), the melting point was 168 to 170 °C.

As to `O=c1[nH]c2ccccc2n1CCN1CCN(c2cc(O)cc(C(F)(F)F)c2)CC1`, the melting point came out at 170 °C.

As for `Cc1ccc(-c2ccc3c(c2)C=C(C(=O)Nc2ccc(CN(C)C4CCOCC4)cc2)CO3)cc1`, the melting point lay within 143 to 145 °C.

For the molecule `O=[N+]([O-])c1ccc(NCCC23CCCN2CCC3)c2ccccc12`, the melting point was in the range of 90 to 91 °C.

For the molecule `CCCc1cccc(=O)[nH]1`, the melting point lay within 89 to 90 °C.

Regarding `CCOc1c(CN2CCCCC2)c2c(c3c1OC(C)(C)C3)C(c1cccc(N(S(C)(=O)=O)S(C)(=O)=O)c1)=NC(C)(C)C2`, the melting point is 118 to 119 °C.

Molecule `CCCCCCc1c(Cl)nc(N=CN(C)C)nc1Cl` had a melting point of 59 to 60 °C.

Consider `CCCN(C(C)C)C(C)CC1=C(c2ccc(OC)cc2)CCCNC1=O` (configuration not stated), for which the melting point is 90 to 92 °C.

On to `COC(=O)Cn1cccc(O)c1=O`, for which the melting point was 141 to 142 °C.

The molecule `CC(O)CNc1nc(NCc2ccccc2N)c2ncn(C(C)C)c2n1` (racemic) came in with a melting point of 175 to 179 °C.

Molecule `CCCOC1(C(F)(F)F)CN(C2CC2)C(=O)Nc2ccc(Cl)cc21` (configuration not stated) returned a melting point of 153 to 154 °C.

Consider `O=C(Nc1ccccc1)OCC#Cc1cc(F)c2ncc(C(=O)NCc3ccc(Cl)cc3)c(O)c2c1`, for which the melting point is 227 to 229 °C.

In turn, `COc1ccc2sc(C(=O)O)c(OCc3ccccc3)c2c1` had a melting point of 150 °C.

`O=C(O)c1cc(-n2c(-c3ccccc3)cc3c2Cc2ccccc2-3)ccc1O`: the melting point fell in the range of 201 to 205 °C.

For the molecule `CCN(CC)c1cc(=S)ss1`, the melting point turned out to be 93 °C.

For the molecule `Clc1ccc(N=c2ccn3ccccc3c2)cc1`, the melting point is 183 to 184 °C.

`Cn1cnc(S(=O)(=O)NCCCN2CCOCC2)c1`: the melting point is 148 to 149 °C.

Molecule `COc1nc(C)nc(NC(=O)NS(=O)(=O)c2ccc(Cl)nn2)n1` had a melting point of 135 °C.

For `N=C(N)c1ccc2c(c1)N(CC(=O)c1ccccc1-c1ccccc1)C(=O)CN2`, the melting point is 148 to 150 °C.

For the molecule `CCOC(=O)c1cc([N+](=O)[O-])c(C)nc1C(=O)OCC`, the melting point lay within 90 to 91.5 °C.

`CC(C)(C)CCCOC1CCC2C3C(=O)C=C4CC(O[Si](C)(C)C(C)(C)C)CCC4(C)C3CCC12C` (configuration not stated) came in with a melting point of 155 to 156 °C.

The molecule `CC(C)(C)OC(=O)N1CCC2(Cc3cc4ccccc4n3C2)C1` (configuration not stated) yielded a melting point of 104 to 106 °C.

In the case of `COc1ccc(-c2ccc(C)n2CC[C@H]2C[C@H](O)CC(=O)O2)cc1` (relative stereo), the melting point is 95 °C.

Take `Cn1c2ccccc2c2c3ccc(Cl)cc3c(=O)[nH]c21`: the melting point is over 310 °C.

For `N=c1cc(N)nc2n1CCS2`, the melting point fell in the range of 146 to 148 °C.

On to `O=[N+]([O-])C(=Cc1ccoc1)C1=NCCN1Cc1ccc(Cl)nc1`, for which the melting point was 175 to 176 °C.

Molecule `CN(C)CCNC(=O)C(Sc1nc2cc(Cl)ccc2s1)c1ccccc1` (configuration not stated) displayed a melting point of 108 to 109 °C.

As to `O=Cc1cnc(-c2ccc(OC(F)(F)F)cc2)nc1`, the melting point lay within 114 to 115 °C.

Take `c1ccc2c(c1)NCc1nnnn1-2`: the melting point lay within 149 to 151 °C.

`CCN(CC)CCNC(=O)c1cc(Cl)c(N)cc1OCCC(C)O` (configuration not stated) yielded a melting point of 136 to 138 °C.

For `CC(=O)Nc1ccc(-c2ncc(C(=O)O)c(O)n2)cc1`, the melting point was over 310 °C.

`FC(F)(F)c1ccc(-c2cc(C(F)(F)F)n3cnc(I)c3n2)cc1` registered a melting point of 141 °C.

On to `Nc1c(C(=O)O)cc(Br)nc1Br`, for which the melting point lay within 251 to 253 °C.

With `COc1cc(N)cc(N)c1`, the melting point lay within 79 to 80 °C.

These data come from a melting point compilation (Tetko et al.; mined from patent text by program, amines drawn as free bases though some values may be those of a salt).
